Patent US7741346B2, “Angiogenesis inhibitor” (Santen Pharmaceutical Co., Ltd., priority 2001, dated 2010)

How the values were obtained:
[1] = system: normal human umbilical vein endotherial cells (HUVEC); assay: VEGF-induced HUVEC proliferation (in vitro angiogenesis inhibition test); assay type: cell-based; conditions: 10 μM test compound, 10 ng/ml VEGF, three days after adding VEGF, WST-8 absorbance at 450 nm; for Inhibitory rate (%) (cell growth inhibitory rate to the control): 10 µM; for inhibition at 10 µM: Homo sapiens, HUVEC, 72 h, read-out: Inhibitory rate (%) (cell growth inhibitory rate to the control)
Experimental: (1) Angiogenesis Inhibition Tests Using Human Endothelial Cells
The effects of the present compounds on the in vitro angiogenesis were evaluated by using vascular endothelial growth factor (VEGF)-induced normal human umbilical vein endotherial cells (HUVEC) proliferation system (Cancer Res., 59, 99-106 (1999)), wherein inhibitory effects of drugs on cell growth reactions induced by treating HUVEC with VEGF as an in vitro angiogenesis evaluation model.
The present compound was dissolved in DMSO and then diluted with a medium to prepare 40 μM test compound solution.
2×10^3 cells/well of HUVEC was seeded onto a type I collagen coated 96-well plate. After one day, 25 μl of the 40 μM test compound solution and a 0.8% DMSO solution as a control were added to each well (final concentration; 10 μM of the test compound and 0.2% of DMSO). One hour after adding the test compound, 25 μl of 40 ng/ml VEGF solution was added to each well(final concentration; 10 ng/ml of VEGF). Three days after adding VEGF, a WST-8 assay reagent (manufactured by Dojin Chemical Co., Ltd.) was added to each well in an amount of 10 μl, and absorbance at 450 nm was measured.
Calculating cell growth inhibitory rates (%) to the control, angiogenesis inhibitory rates of almost all of the test compounds were 80% or higher.

SMILES	Inhibitory rate (%) (cell growth inhibitory rate to the control) [1]	melting point [°C]	inhibition at 10 µM [1] [%]
CC(CNC(=O)N(CCN(C)C(=O)OC(C)(C)C)CCC12CC3CC(CC(C3)C1)C2)Cc1ccncc1 (single isomer, unassigned; (+)) [Compound No. 1-139, (+)-1-[2-(1-Adamantyl)ethyl]-1-[2-[N-(t-butoxycarbonyl)-N-methylamino]ethyl]-3-[2-methyl-3-(4-pyridyl)propyl]urea]	83.1	122.7 to 123.7	–
O=C(NCCCc1ccncc1)N(CCC(F)(F)F)CCC12CC3CC(CC(C3)C1)C2 [Compound No. 1-24, 1-[2-(1-Adamantyl)ethyl]-3-[3-(4-pyridyl)propyl]-1-(3,3,3-trifluoropropyl)urea]	–	107.5 to 109	82.1
CC=CCN(CCC12CC3CC(CC(C3)C1)C2)C(=O)NCCCc1ccncc1 [Compound No. 1-25, 1-[2-(1-Adamantyl)ethyl]-1-(2-butenyl)-3-[3-(4-pyridyl)propyl]urea]	–	89.5 to 93.5	83.2
CCCN(CCCC12CC3CC(CC(C3)C1)C2)C(=O)NCCCc1ccncc1 [Compound No. 1-35, 1-[3-(1-Adamantyl)propyl]-1-propyl-3-[3-(4-pyridyl)propyl]urea]	–	–	83.7
CCCCCN(CCC12CC3CC(CC(C3)C1)C2)C(=O)NCC(C)Cc1ccncc1 (stereo not shown) [Compound No. 1-100, 1-[2-(1-Adamantyl)ethyl]-3-[2-methyl-3-(4-pyridyl)propyl]-1-pentylurea]	83.0	–	–
CC(CNC(=O)N(CCN(C)C(=O)OC(C)(C)C)CCC12CC3CC(CC(C3)C1)C2)Cc1ccncc1 (stereo not shown) [Compound No. 1-107]	–	–	83.2
CCCCCN(CCC12CC3CC(CC(C3)C1)C2)C(=O)NC/C=C\c1ccncc1 [Compound No. 1-111, (Z)-1-[2-(1-Adamantyl)ethyl]-1-pentyl-3-[3-(4-pyridyl)-2-propenyl]urea]	–	–	83.1
CCCCCN(CCC12CC3CC(CC(C3)C1)C2)C(=O)NC/C=C/c1ccncc1 [Compound No. 1-112, (E)-1-[2-(1-Adamantyl)ethyl]-1-pentyl-3-[3-(4-pyridyl)-2-propenyl]urea]	–	90 to 118	83.2
CCCCCN(CCC1CCCCC1)C(=O)NCC(C)Cc1ccncc1 (stereo not shown) [Compound No. 1-118, 1-(2-Cyclohexylethyl)-3-[2-methyl-3-(4-pyridyl)propyl]-1-pentylurea]	–	–	81.6
CCCCCN(CCC12CC3CC(CC(C3)C1)C2)C(=O)NC(C)CCc1ccncc1 (stereo not shown) [Compound No. 1-137, 1-[2-(1-Adamantyl)ethyl]-3-[1-methyl-3-(4-pyridyl)propyl]-1-pentylurea]	–	128.5 to 129	83.3
CCCCCN(CCC12CC3CC(CC(C3)C1)C2)C(=O)CCCCc1ccncc1 [Compound No. 2-14, 5-(4-Pyridyl)valeric acid N-[2-(1-adamantyl)ethyl]-N-pentylamide]	–	–	83.4
CCCCCN(CCC12CC3CC(CC(C3)C1)C2)C(=O)CCSCc1ccncc1 [Compound No. 2-15, 3-(4-Pyridylmethylthio)propionic acid N-[2-(1-adamantyl)ethyl]-N-pentylamide]	–	–	83.3
CCCCCN(CCC12CC3CC(CC(C3)C1)C2)C(=O)CSCCc1ccncc1 [Compound No. 2-18, 2-[2-(4-Pyridyl)ethylthio]acetic acid N-[2-(1-adamantyl)ethyl]-N-pentylamide]	–	–	82.2
CCCCCN(CCC12CC3CC(CC(C3)C1)C2)C(=O)CCCCCc1ccncc1 [Compound No. 2-20, 6-(4-Pyridyl)caproic acid N-[2-(1-adamantyl)ethyl]-N-pentylamide]	–	–	82.5
